# Source: patent US20030013660A1, “Dioxolane analogs for improved inter-cellular delivery” (Shire BioChem Inc., priority 2000, published 2003)
# Where “and” joins values, the source holds several entries; their conditions need not be identical. Identical values can stand only once.
# Tests used:
# MCF-7 [1] = experiment: 3H-TdR (3H-thymidine) incorporation assay at 72 hr; type: cell-based, Human; conditions: Homo sapiens, MCF7, read-out: IC50 MCF-7 24 h, 24 h drug exposure, wash, another 48 hr; 3H-TdR incorporation at 72 hr
# SF-268 [2] = experiment: 3H-TdR (3H-thymidine) incorporation assay at 72 hr; type: cell-based, Human; conditions: Homo sapiens, SF-268, read-out: IC50 SF-268 24 h, 24 h drug exposure, wash, another 48 hr; 3H-TdR incorporation at 72 hr
# H-460 [3] = experiment: 3H-TdR (3H-thymidine) incorporation assay at 72 hr; type: cell-based, Human; conditions: Homo sapiens, NCI-H460, read-out: IC50 H-460 24 h, 24 h drug exposure, wash, another 48 hr; 3H-TdR incorporation at 72 hr
# CCRF-CEM [4] = experiment: MTT or WST-1 assay at 72 hr (24 hr drug exposure, wash, 48 hr); type: cell-based
# Protocol: (§1) Exposition of 24hr to drug, washed, and incubated for another 48hr (total of 72hr assay)
# CCRF-CEM [5] = experiment: 3H-TdR (3H-thymidine) incorporation assay at 72 hr; type: cell-based; conditions: Homo sapiens, CCRF-CEM, read-out: IC50 CCRF-CEM 24 h, 24 h drug exposure, wash, another 48 hr; 3H-TdR incorporation at 72 hr
# Protocol: (§2) Table of IC50 Values (μM) for Controls
# (§3) Exposition of 24 hr to drug, wash, incubated for another 48 hr (total of 72 hr assay)
# (§4) (3H-Thymidine Incorporation Assay)
# CEM/dCK- [6] = experiment: 3H-TdR (3H-thymidine) incorporation assay at 72 hr; type: cell-based
# Protocol: as §2, §3, §4
# CEM/dCK- [7] = experiment: 3H-TdR incorporation at 72 hr (24 hr drug exposure, wash, 48 hr); type: cell-based; conditions: for IC50: Homo sapiens, CCRF-CEM, read-out: IC50 in μM (3H-TdR incorporation at 72 hr) CEM/dCK- 24 h, CCRF-CEM deoxycytidine kinase-deficient, 24 h drug exposure, 72 hr assay; for Factor* (Resistance Factor = Ratio of dCK- on Wild-type CCRF-CEM): ratio of IC50 CEM/dCK- to IC50 CCRF-CEM
# Protocol: as §3, §4
# CEM/dCK- [8] = experiment: MTT or WST-1 assay at 72 hr (24 hr drug exposure, wash, 48 hr); type: cell-based
# Protocol: as §1
# SF-268 [9] = experiment: 3H-TdR incorporation at 72 hr (24 hr drug exposure, wash, 48 hr); type: cell-based, Human; conditions: Homo sapiens, SF-268, read-out: IC50 in μM (3H-TdR incorporation at 72 hr) SF-268 24 h, SF-268 Human Central Nervous System Tumor; 24 h drug exposure, 72 hr assay
# Protocol: as §3, §4
# MCF-7 [10] = experiment: as above; type: cell-based, Human; conditions: Homo sapiens, MCF7, read-out: IC50 in μM (3H-TdR incorporation at 72 hr) MCF-7 24 h, MCF-7 Human Breast Carcinoma, 72 hr assay
# Protocol: as §3, §4
# H-460 [11] = experiment: as above; type: cell-based, Human; conditions: Homo sapiens, NCI-H460, read-out: IC50 in μM (3H-TdR incorporation at 72 hr) H-460 24 h, H-460 Human Lung Carcinoma, 72 hr assay
# Protocol: as §3, §4
# CCRF-CEM [12] = experiment: as above; type: cell-based; conditions: read-out: IC50 in μM (3H-TdR incorporation at 72 hr) CCRF-CEM 24 h, CCRF-CEM T-cell Leukemia, 72 hr assay
# Protocol: as §3, §4
# H-460 [13] = experiment: MTT assay at 72 hr (24 hr drug exposure, wash, 48 hr); type: cell-based
# Protocol: as §1
# [14] = Homo sapiens, CCRF-CEM, read-out: IC50 CCRF-CEM 24 h, MMT or WST-1 at 72 hr, 24 h exposure, single experiment
# [15] = read-out: IC50 CCRF-CEM 24 h, MMT or WST-1 at 72 hr, 24 h exposure, single experiment
# [16] = read-out: IC50 CEM/dCK- 24 h, MMT or WST-1 at 72 hr, 24 h exposure, single experiment
# [17] = read-out: IC50 CEM/dCK- 24 h; MMT or WST-1 at 72 hr, 24 h exposure, single experiment
# [18] = read-out: IC50 H-460 24 h, MTT at 72 hr, 24 h exposure, single experiment
IC50 (CEM/dCK- [7]) [µM],IC50 (SF-268 [9]) [µM],IC50 (MCF-7 [10]) [µM],IC50 (H-460 [11]) [µM],"IC50 (CCRF-CEM [12]; Homo sapiens, CCRF-CEM) [nM]",SMILES,Factor* (Resistance Factor = Ratio of dCK- on Wild-type CCRF-CEM) (CEM/dCK- [7]),further results
,,,,< 0.1,"CCCCCCCCCCCC(=O)Nc1ccn([C@@H]2CO[C@H](CO)O2)c(=O)n1 [Compound 208, DODECANOIC ACID [1-(2- HYDROXYMETHYL- [1,3]DIOXOLAN-4-YL)-2- OXO-1,2-DIHYDRO- PYRIMIDIN-4-YL]-AMIDE]",,"IC50 (H-460 [13]; Homo sapiens, NCI-H460, read-out: IC50 H-460 24 h, MTT at 72 hr, 24 h exposure, single experiment): 110 nM; IC50 (H-460 [13]; [18]): 200 nM; IC50 (CCRF-CEM [12]): 0.052 nM"
20,0.19,0.00033,0.0065,3,"CCCCC[C@H]1CC[C@H](C(=O)Nc2ccn([C@@H]3CO[C@H](CO)O3)c(=O)n2)CC1 [Compound 239, 4-PENTYL- CYCLOHEXANECARBOXYLIC ACID [1-(2- HYDROXYMETHYL- [1,3]DIOXOLAN-4-YL)-2- OXO-1,2-DIHYDRO- PYRIMIDIN-4-YL]-AMIDE]",6667,IC50 (H-460 [13]; [18]): 200 nM; IC50 (CEM/dCK- [8]; [16]): 20000 nM; IC50 (CEM/dCK- [8]; [17]): 28000 nM and 17000 nM
72,0.32,0.0005,0.0011,27,"CC(C)Cc1ccc([C@H](C)C(=O)OC[C@H]2OC[C@@H](n3ccc(N)nc3=O)O2)cc1 [Compound 243, 2-(4-ISOBUTYL-PHENYL)- PROPIONIC ACID 4-(4- AMINO-2-OXO-2H- PYRIMIDIN-1-YL)- [1,3]DIOXOLAN-2-YL METHYL ESTER]","2,667",
0.68,< 0.0001,< 0.0001,< 0.0001,< 0.1,"CC(CCCCCCc1ccccc1)C(=O)OC[C@H]1OC[C@@H](n2ccc(N)nc2=O)O1 (stereo partly shown) [Compound 245, 2-METHYL-8-PHENYL- OCTANOIC ACID 4-(4- AMINO-2-OXO-2H- PYRIMIDIN-1-YL)- [1,3]DIOXOLAN-2-YL METHYL ESTER]",>6800,
> 100,28,1.4,47,25000,"Nc1ccn([C@@H]2CO[C@H](COC(=O)N(c3ccccc3)c3ccccc3)O2)c(=O)n1 [Compound 246, DIPHENYL-CARBAMIC ACID 4-(4-AMINO-2-OXO-2H- PYRIMIDIN-1-YL)- [1,3]DIOXOLAN-2-YL METHYL ESTER]",>4,
> 100,8.4,0.78,8.6,3900,"CC(C)C(C(=O)Nc1ccn([C@@H]2CO[C@H](CO)O2)c(=O)n1)c1ccccc1 (stereo partly shown) [Compound 249, #N!-[1-(2- HYDROXYMETHYL- [1,3]DIOXOLAN-4-YL)-2- OXO-1,2-DIHYDRO- PYRIMIDIN-4-YL]-3- METHYL-2-PHENYL- BUTYRAMIDE]",>25,
31,0.29,0.18,0.17,98,"CC(C)C[C@H](NC(=O)OCc1ccccc1)C(=O)Nc1ccn([C@@H]2CO[C@H](CO)O2)c(=O)n1 [Compound 254, {1-[1-(2-HYDROXYMETHYL- [1,3]DIOXOLAN-4-YL)-2- OXO-1,2-DIHYDRO- PYRIMIDIN-4-YL CARBAMOYL]-3-METHYL- BUTYL}-CARBAMIC ACID BENZYL ESTER]",316,
20,14,5.1,4.6,5300,"CC(C)(C)C(CCCCCCc1ccccc1)C(=O)OC[C@H]1OC[C@@H](n2ccc(N)nc2=O)O1 (stereo partly shown) [Compound 256, 2-tert-Butyl-8-phenyl-octanoic acid 4-(4-amino-2-oxo-2H-pyrimidin-1-yl)-[1,3]dioxolan-2-yl methyl ester]",4,

# Second part, the compound before the results:
SMILES,IC50 (CEM/dCK- [7]) [µM],IC50 (SF-268 [9]) [µM],IC50 (MCF-7 [10]) [µM],IC50 (H-460 [11]) [µM],"IC50 (CCRF-CEM [12]; Homo sapiens, CCRF-CEM) [nM]",Factor* (Resistance Factor = Ratio of dCK- on Wild-type CCRF-CEM) (CEM/dCK- [7]),further results
"Nc1ccn([C@@H]2CO[C@H](COC(=O)C34CC5CC(CC(C5)C3)C4)O2)c(=O)n1 [Compound 110, ADAMANTANE-1-CARBOXYLIC ACID 4-(4-AMINO-2-OXO- 2H-PYRIMIDIN-1-YL)- [1,3]DIOXOLAN-2- YLMETHYL ESTER]",,,,,,,"IC50 (MCF-7 [1]): 10 nM; IC50 (SF-268 [2]): 4.9 nM; IC50 (H-460 [3]): 1 nM; IC50 (CCRF-CEM [4]; [14]): 3.4 nM; IC50 (CCRF-CEM [4]; [15]): 2.5 nM and 4 nM; IC50 (CCRF-CEM [5]): 1.3 nM; IC50 (CEM/dCK- [6]; Homo sapiens, CCRF-CEM, read-out: IC50 CEM/dCK- 24 h, 24 h drug exposure, wash, another 48 hr, deoxycytidine kinase-deficient CCRF-CEM): 4300 nM; Factor* (Resistance Factor = Ratio of dCK- on Wild-type CCRF-CEM) (CEM/dCK- [6]; ratio of IC50 CEM/dCK- to CCRF-CEM, 24 h): 3307"
"CC(C)(C)c1cc(C(=O)OC[C@H]2OC[C@@H](n3ccc(N)nc3=O)O2)cc(C(C)(C)C)c1 [Compound 186, 3,5-DI-TERT-BUTYL- BENZOIC ACID 4-(4- AMINO-2-OXO-2H- PYRIMIDIN-1-YL)- [1,3]DIOXOLAN-2- YLMETHYL ESTER]",> 100,,,,,,IC50 (CEM/dCK- [8]; [16]): 26000 nM; IC50 (CEM/dCK- [8]; [17]): 14000 nM
"O=C(CCCCCCCc1ccccc1)Nc1ccn([C@@H]2CO[C@H](COC(=O)CCCCCCCc3ccccc3)O2)c(=O)n1 [Compound 196, 8-PHENYL-OCTANOIC ACID 4-[2-OXO-4-(8-PHENYL- OCTANOYLAMINO)-2H- PYRIMIDIN-1-YL]- [1,3]DIOXOLAN-2-YL METHYL ESTER]",,< 0.0001,< 0.0001,< 0.0001,,,IC50 (CCRF-CEM [4]; [14]): 10 nM
"CC(=O)Oc1ccc(COC(=O)Nc2ccn([C@@H]3CO[C@H](COC(=O)OCc4ccc(OC(C)=O)cc4)O3)c(=O)n2)cc1 [Compound 202, Acetic acid 4-(1-{2-[4-(Acetyloxy)benzyloxycarbonyloxymethyl]-[1,3]dioxolan-4-yl}2-oxo-1,2-dihydropyrimidin-4-ylcarbamoyloxymethyl)-phenyl Ester]",,,< 0.0001,,< 0.1,>1000,"IC50 (CCRF-CEM [4]; [14]): 14 nM; Resistance Factor* (CEM/dCK- [8]; CEM/dCK- versus CCRF-CEM, single experiment): >7; IC50 (CEM/dCK- [8]; [16]): 50 nM; IC50 (CEM/dCK- [8]; [17]): > 100 nM"
"CCCCCCCC/C=C\CCCCCCCC(=O)Nc1ccn([C@@H]2CO[C@H](CO)O2)c(=O)n1 [Compound 219, OCTADEC-9-ENOIC ACID [1-(2-HYDROXYMETHYL- [1,3]DIOXOLAN-4-YL)-2- OXO-1,2-DIHYDRO- PYRIMIDIN-4-YL]-AMIDE]",2.1,0.00012,≤ 0.0001,≤ 0.0001,,,IC50 (CCRF-CEM [4]; [14]): 18 nM; IC50 (CCRF-CEM [4]; [15]): 10 nM
"CC(C)Cc1ccc([C@H](C)C(=O)Nc2ccn([C@@H]3CO[C@H](CO)O3)c(=O)n2)cc1 [Compound 242, N-[1-(2-HYDROXYMETHYL- [1,3]DIOXOLAN-4-YL)-2- OXO-1,2-DIHYDRO- PYRIMIDIN-4-YL]-2-(4- ISOBUTYL-PHENYL)- PROPIONAMIDE]",93,1.1,0.001,0.25,230,404,
"CCCCCc1ccc(OC(=O)Nc2ccn([C@@H]3CO[C@H](CO)O3)c(=O)n2)cc1 [Compound 250, [1-(2-HYDROXYMETHYL- [1,3]DIOXOLAN-4-YL)-2- OXO-1,2-DIHYDRO- […]-4-YL]- CARBAMIC ACID 4-PENTYL- PHENYL ESTER]",31,0.17,0.16,0.17,63,492,
"CCC(CCCCCCc1ccccc1)C(=O)OC[C@H]1OC[C@@H](n2ccc(N)nc2=O)O1 (stereo partly shown) [Compound 266, 2-ETHYL-8-PHENYL- OCTANOIC ACID 4-(4- AMINO-2-OXO-2H- PYRIMIDIN-1-YL)- [1,3]DIOXOLAN-2- YLMETHYL ESTER]",,,,,,,IC50 (CEM/dCK- [8]; [16]): 21000 nM; IC50 (CEM/dCK- [8]; [17]): 26000 nM
